Converted amounts (≈) assume the structure as drawn. “And” between values parts separate entries of the source, which are not always exact repeats. Equal values may be shown once.

Data set [1] deals with vancomycin-resistant Enterococcus. In words: Antimicrobial testing. The class given is cell-based. The conditions noted are these: for MIC: Enterococcus.
Another data set has as its system S. pneumonia ATCC 49619. Description: Antimicrobial testing. The class given is cell-based.
A further data set concerns B. anthracis 34f2. The class given is cell-based. The conditions noted are these: comparable to commercial antibiotic erythromycin.
A further data set relates to E. coli TolC. The class given is cell-based.
Data set [2] deals with TamI WT and mutants. Description: Substrate-induced heme spin shift binding, several TamI P450s.
The target of a further data set is TamL enzyme (Streptomyces sp. 307-9, UniProt D3Y1I2). Description: Isothermal titration calorimetry with TamL. (In general: In ITC the heat of successive injections is recorded.)
Data set [3] concerns TamI WT and mutants. The conditions noted are these: range over WT and all variants tested.
Data set [4] addresses TamI WT. Description: Substrate-induced heme spin shift binding, TamI WT. The conditions noted are these: TamI WT (parent enzyme).
For data set [5], the system named is TamI WT. In words: Total turnover number, TamI WT. Particulars: compound as substrate.
In data set [6] the test system is CC1=CC[C@H]2O[C@]1(C)O[C@H]([C@H](C)/C=C(C)/C=C/C(O)=C1/C(=O)CNC1=O)[C@H]2C. Description: purified protein, by the assay type.
In the next data set the test system is TamI biocatalysts. Description: In vitro analytical enzymatic reactions with TamI biocatalysts. The class given is biochemical, Streptomyces sp. 307-9. The conditions noted are these: compound as substrate.
Substrate in data set [7]: CC(/C=C/C(O)=C1/C(=O)CNC1=O)=C\[C@@H](C)[C@H]1O[C@@]2(C)O[C@H](C(=O)[C@@H]3O[C@@]32C)[C@@H]1C
Description: purified protein, by the assay type. Particulars: other: compound as substrate; P450 TamI WT.

Substrate in data set [8]: CC(C=CC(O)=C1C(=O)CNC1=O)=CC(C)C1OC2(C)OC(C(O)C=C2C)C1C
Description: purified protein, by the assay type. Particulars: other: compound as substrate; P450 TamI WT.

Substrate in data set [9]: CC1=CC(=O)[C@H]2O[C@]1(C)O[C@H]([C@H](C)/C=C(C)/C=C/C(O)=C1/C(=O)CNC1=O)[C@H]2C
In words: purified protein, by the assay type. Particulars: other: compound as substrate; P450 TamI WT.

As to `O=C(O)c1cn(C2CC2)c2cc(N3CCNCC3)c(F)cc2c1=O` [ciprofloxacin, reference compound], the values for the MIC (in data set [1]; against S. pneumonia ATCC 49619) were above 100 µM and 1.56 µM (≈ 0.517 µg/mL), respectively.
For the molecule `CC1=CC[C@H]2O[C@]1(C)O[C@H]([C@H](C)/C=C(C)/C=C/C(O)=C1/C(=O)CNC1=O)[C@H]2C` [compound 1, tirandamycin C], in the data set with B. anthracis 34f2, the “activity against B. anthracis 34f2 (in words)” value is on record as “strong activity”. The MIC (commonly the lowest concentration found to suppress growth) came to 25 µM (≈ 9.69 µg/mL) in data set [1] and 12.5 µM (≈ 4.84 µg/mL) against S. pneumonia ATCC 49619. The “activity against S. pneumonia ATCC 49619 (in words)” value with S. pneumonia ATCC 49619 is listed as “enhanced activity”. Further, the “activity against E. coli TolC (in words)” value in the data set with E. coli TolC was “relatively weak activity”.
Consider `CC(C=CC(O)=C1C(=O)CNC1=O)=CC(C)C1OC2(C)OC(C(O)C=C2C)C1C` (stereo not drawn) [compound 2, tirandamycin E], for which the spin shift entry at TamI WT and mutants [2] (the other P450s (than L101A_L295I) including the parent enzyme) is “no spin shift was observed”. Further, the MIC (in data set [1]; with S. pneumonia ATCC 49619) was above 100 µM each time. For the same molecule, the affinity at TamL enzyme, expressed as Kd, was 2.26 µM.
Consider `CC1=CC(=O)[C@H]2O[C@]1(C)O[C@H]([C@H](C)/C=C(C)/C=C/C(O)=C1/C(=O)CNC1=O)[C@H]2C` [compound 3, tirandamycin D], for which the “activity against B. anthracis 34f2 (in words)” value in the data set with B. anthracis 34f2 is “strong activity”. In addition, the Kd – broadly, the constant that tells how readily two partners part at equilibrium – at TamI WT and mutants [2] (heme spin shift, range over WT and all variants tested) is 6.89 to 8.32 µM. Besides, the MIC in data set [1] was above 100 µM. In the data set with S. pneumonia ATCC 49619, the MIC was 12.5 µM (≈ 5.02 µg/mL) and the “activity against S. pneumonia ATCC 49619 (in words)” value is given as “enhanced activity”. For the same molecule, the “TTN (mol substrate consumed/mol P450)” value in the data set on TamI WT and mutants [3] is listed as 313–340.
On to `CC(/C=C/C(O)=C1/C(=O)CNC1=O)=C\[C@@H](C)[C@H]1O[C@@]2(C)O[C@H](C(=O)[C@@H]3O[C@@]32C)[C@@H]1C` [compound 4, Tirandamycin A], for which, at TamI WT [4], the Kd result is recorded as “no shift observed”. Also, the “TTN (mol substrate consumed/mol P450)” value in the data set with TamI WT [5] turned out to be 143. In data set [1], the “activity against VRE (in words)” value is reported as “strongest activity” and the MIC was found to be 6.25 µM (≈ 2.61 µg/mL). This molecule also showed an MIC in the data set with S. pneumonia ATCC 49619 of 25 µM (≈ 10.4 µg/mL).
In the case of `CC[C@H]1OC(=O)[C@H](C)[C@@H](O[C@H]2C[C@@](C)(OC)[C@@H](O)[C@H](C)O2)[C@H](C)[C@@H](O[C@@H]2O[C@H](C)C[C@H](N(C)C)[C@H]2O)[C@](C)(O)C[C@@H](C)C(=O)[C@H](C)[C@@H](O)[C@]1(C)O` [erythromycin, reference compound], the MIC stood at 3.13 µM (≈ 2.3 µg/mL) in data set [1] and 0.195 µM (≈ 0.143 µg/mL) against S. pneumonia ATCC 49619.
The matching figures for `CNC(=O)[C@@H](C)[C@H]1C(=O)/C(=C(O)/C=C/C(C)=C/[C@@H](C)[C@H]2O[C@@]3(C)O[C@H](C=C[C@@]34CO4)[C@@H]2C)C(=O)N1[C@@H]1CC[C@H](O)[C@H](C)O1` [streptolydigin, reference compound]: above 100 µM and above 100 µM.
For P450 TamI WT (Streptomyces sp. 307-9), in data set [6], the Km (commonly the substrate concentration at which the rate is half of its maximum) stood at 16.0 ± 2.6 µM; the kcat (as a rule, the number of substrate molecules converted per active site and unit of time at saturation) was 0.497 ± 0.0317 s⁻¹; the specificity constant (kcat/Km) (in general, the second-order rate constant that governs catalysis at low substrate concentration) amounted to 31200 M⁻¹ s⁻¹.
With tirandamycin O’ [compound 10], in the data set on TamI biocatalysts, the “oxidative activity / product formation with TamI biocatalysts” value was “failed to yield products”.

B1: P450 TamI WT (Streptomyces sp. 307-9) (protein)
chain: MPMLQDSVPLELDDAFMQDPHSVYARLNAEGSAHRVMMPPGVPVCGGLPVWLITGYEEVRSALADPRLSTDLNRTDRLFAQNEPDRNKRGAFSSALATHMLHSDPPDHTRLRKLVNKAFTSRAIEKLRPEIEQITGELLAALPDEDPVDLLDAFAFPLPIRVICLLLGVPLEEQENFKSWSKALVSGDSPAATAAASTAMIEYLGDLIERKRRTPTDDVLAALVSARDVDDRLTETELVSMAFLLFIGGHETTVNTLGNGTLHLMRNLDQWEALRQDRSLLPGAVEEFLRLESPLKHATFRCATEDLRIGDTAIPAGDFVLLALASANRDPERFGDPHTLDVRRPTGGHVAFGHGIHYCLGAPLARMEAQVAFGVLLDTFPAMRLAVDPEDMRWRTSTLIRGLHSLPVRLNRP
For the molecule B1, in data set [7], the Km is 8.2 ± 1.0 µM; the kcat was 0.0006 ± 1.67e-05 s⁻¹; the kcat/Km was 67 M⁻¹ s⁻¹ and 73.3 M⁻¹ s⁻¹. In [8], the Km was 108.5 ± 25.9 µM, the kcat worked out at 0.000667 ± 0.000167 s⁻¹ and the kcat/Km came to 5 M⁻¹ s⁻¹. Moreover, in [9], the Km is 36.5 ± 7.1 µM, the kcat is 0.113 ± 0.00833 s⁻¹ and the kcat/Km turned out to be 3170 M⁻¹ s⁻¹.
